The compounds below were run against T1, b-Raf(V600E) (Homo sapiens, UniProt P15056, V600E) (assay: Raf/Mek Amplified Luminescence Proximity Homogeneous Assay (Alpha Screen), b-Raf(V600E)). Conditions: mutant b-Raf(V600E), read-out: mut-b-RAF (IC50 in uM).
T1 construct: made in house
Assay type: biochemical
How it was run: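 IC50 derived by non-linear regression from AlphaScreen luminescence of phospho-MEK (anti-p-MEK antibody). Reaction: ~4 pM b-Raf(V600E), ~10 nM kinase-dead biotinylated Mek, 60 min compound pre-incubation, then 3 h with ATP at room temperature in pH 7.5 Tris/MgCl2/DTT buffer, quenched with EDTA.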

T1 sequence (P15056 whole entry V600E): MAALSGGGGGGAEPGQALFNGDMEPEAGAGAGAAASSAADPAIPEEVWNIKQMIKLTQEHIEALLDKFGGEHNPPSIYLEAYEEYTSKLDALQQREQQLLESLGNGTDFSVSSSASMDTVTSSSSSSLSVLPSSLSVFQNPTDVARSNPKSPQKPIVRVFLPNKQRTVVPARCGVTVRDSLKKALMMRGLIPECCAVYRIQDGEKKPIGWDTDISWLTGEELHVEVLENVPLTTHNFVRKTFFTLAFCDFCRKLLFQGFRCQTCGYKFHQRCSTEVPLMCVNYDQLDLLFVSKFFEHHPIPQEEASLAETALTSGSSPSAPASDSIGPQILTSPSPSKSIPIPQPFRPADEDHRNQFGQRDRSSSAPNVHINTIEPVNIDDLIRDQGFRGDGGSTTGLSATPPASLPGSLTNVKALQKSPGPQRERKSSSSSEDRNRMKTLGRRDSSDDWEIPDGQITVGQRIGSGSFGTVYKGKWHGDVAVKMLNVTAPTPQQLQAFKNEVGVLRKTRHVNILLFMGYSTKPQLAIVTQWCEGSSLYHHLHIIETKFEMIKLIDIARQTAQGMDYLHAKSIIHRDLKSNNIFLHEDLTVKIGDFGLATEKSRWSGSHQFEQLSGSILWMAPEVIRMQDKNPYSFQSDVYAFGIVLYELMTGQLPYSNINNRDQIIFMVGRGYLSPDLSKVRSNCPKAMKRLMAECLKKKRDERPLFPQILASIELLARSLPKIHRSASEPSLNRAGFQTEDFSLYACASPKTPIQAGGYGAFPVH

Structure (SMILES) | IC50
COc1cc(-c2nc(-c3ccc(C(F)(F)F)cc3)oc2-c2ccnc(NCC(C)C)c2)cnc1N [Compound 232, 4-(4-(6-amino-5-methoxypyridin-3-yl)-2-(4-(trifluoromethyl)phenyl)-oxazol-5-yl)-N-isobutylpyridin-2-amine] | 8.4 nM
COC(=O)N[C@@H](C)CNc1nccc(-c2nc(C(C)(C)C)[nH]c2-c2ccc3[nH]ccc3c2)n1 [Compound 240, (S)-methyl 1-(4-(2-tert-butyl-5-(1H-indol-5-yl)-1H-imidazol-4-yl)pyrimidin-2-ylamino)propan-2-ylcarbamate] | 13.8 nM
COc1cc(-c2nc(C(C)(C)C)[nH]c2-c2ccnc(NC[C@H](C)NC(=O)[C@H](C)OC)n2)cnc1N [Compound 241, (S)-N-((S)-1-(4-(4-(6-amino-5-methoxypyridin-3-yl)-2-tert-butyl-1H-imidazol-5-yl)pyrimidin-2-ylamino)propan-2-yl)-2-methoxypropanamide] | 0.7 nM
CCc1nc(-c2cnc(N)c(OC)c2)c(-c2ccnc(Nc3ccnc(OC)c3)n2)[nH]1 [Compound 243, 4-(4-(6-amino-5-methoxypyridin-3-yl)-2-ethyl-1H-imidazol-5-yl)-N-(2-methoxypyridin-4-yl)pyrimidin-2-amine] | 0.4 nM
COc1cc(Nc2nccc(-c3[nH]c(C)nc3-c3cnc(N)c(OC)c3)n2)ccn1 [Compound 244, 4-(4-(6-amino-5-methoxypyridin-3-yl)-2-methyl-1H-imidazol-5-yl)-N-(2-methoxypyridin-4-yl)pyrimidin-2-amine] | 3 nM
COc1cc(Nc2nccc(-c3[nH]c(C)nc3-c3cnc(N)c(OC)n3)n2)ccn1 [Compound 245, 4-(4-(5-amino-6-methoxypyrazin-2-yl)-2-methyl-1H-imidazol-5-yl)-N-(2-methoxypyridin-4-yl)pyrimidin-2-amine] | 11 nM
COCC(=O)N[C@H](C)CNc1nccc(-c2[nH]c(-c3ccc(F)cc3)nc2-c2cnc(N)c(OC)n2)n1 [Compound 249, (R)-N-(1-(4-(4-(5-amino-6-methoxypyrazin-2-yl)-2-(4-fluorophenyl)-1H-imidazol-5-yl)pyrimidin-2-ylamino)propan-2-yl)-2-methoxyacetamide] | 12 nM
COCC(=O)N[C@@H](C)CNc1nccc(-c2[nH]c(-c3ccc(F)cc3)nc2-c2nc(OC)c(N)nc2C)n1 [Compound 252, (S)-N-(1-(4-(4-(5-amino-6-methoxy-3-methylpyrazin-2-yl)-2-(4-fluorophenyl)-1H-imidazol-5-yl)pyrimidin-2-ylamino)propan-2-yl)-2-methoxyacetamide] | 2.4 nM
COc1cc(Nc2nccc(-c3[nH]c(C(C)(C)C)nc3-c3nc(OC)c(N)nc3C)n2)ccn1 [Compound 253, 4-(4-(5-amino-6-methoxy-3-methylpyrazin-2-yl)-2-tert-butyl-1H-imidazol-5-yl)-N-(2-methoxypyridin-4-yl)pyrimidin-2-amine] | 6.2 nM
COc1nc(-c2nc(C(C)(C)C)[nH]c2-c2ccnc(NC[C@H](C)NC(=O)[C@H](C)OC)n2)c(C)nc1N [Compound 254, (S)-N-((S)-1-(4-(4-(5-amino-6-methoxy-3-methylpyrazin-2-yl)-2-tert-butyl-1H-imidazol-5-yl)pyrimidin-2-ylamino)propan-2-yl)-2-methoxypropanamide] | 3.8 nM
COCC(=O)N[C@@H](C)CNc1nccc(-c2[nH]c(C3CC3)nc2-c2nc(OC)c(N)nc2C)n1 [Compound 255, (S)-N-(1-(4-(4-(5-amino-6-methoxy-3-methylpyrazin-2-yl)-2-cyclopropyl-1H-imidazol-5-yl)pyrimidin-2-ylamino)propan-2-yl)-2-methoxyacetamide] | 3.9 nM
CCOC(=O)N[C@@H](C)CNc1nccc(-c2[nH]c(C(C)(C)C)nc2-c2nc(OC)c(N)nc2C)n1 [Compound 256, (S)-ethyl 1-(4-(4-(5-amino-6-methoxy-3-methylpyrazin-2-yl)-2-tert-butyl-1H-imidazol-5-yl)pyrimidin-2-ylamino)propan-2-ylcarbamate] | 1.1 nM
COc1nc(-c2nc(C(C)(C)C)[nH]c2-c2ccnc(NC[C@H](C)NC(=O)OC(C)C)n2)c(C)nc1N [Compound 257, (S)-isopropyl 1-(4-(4-(5-amino-6-methoxy-3-methylpyrazin-2-yl)-2-tert-butyl-1H-imidazol-5-yl)pyrimidin-2-ylamino)propan-2-ylcarbamate] | 1.2 nM
COc1nc(-c2nc(C(C)(C)C)[nH]c2-c2ccnc(NC[C@H](C)NC(=O)OCC(C)C)n2)c(C)nc1N [Compound 258, (S)-isobutyl 1-(4-(4-(5-amino-6-methoxy-3-methylpyrazin-2-yl)-2-tert-butyl-1H-imidazol-5-yl)pyrimidin-2-ylamino)propan-2-ylcarbamate] | 1.1 nM
COc1nc(-c2nc(C(C)(C)C)[nH]c2-c2ccnc(NC[C@H](C)NC(=O)OCC(C)(C)C)n2)c(C)nc1N [Compound 259, (S)-neopentyl 1-(4-(4-(5-amino-6-methoxy-3-methylpyrazin-2-yl)-2-tert-butyl-1H-imidazol-5-yl)pyrimidin-2-ylamino)propan-2-ylcarbamate] | 1.5 nM
COC(=O)N[C@@H](C)CNc1nccc(-c2[nH]c(C(C)(C)C)nc2-c2nc(OC)c(N)nc2C)n1 [Compound 260, (S)-methyl 1-(4-(4-(5-amino-6-methoxy-3-methylpyrazin-2-yl)-2-tert-butyl-1H-imidazol-5-yl)pyrimidin-2-ylamino)propan-2-ylcarbamate] | 1 nM

Continued, values first:

IC50 | Structure (SMILES)
0.2 nM | COc1cc(Nc2nccc(-c3[nH]c(C(C)C)nc3-c3cnc(N)c(OC)c3)n2)ccn1 [Compound 231, 4-(4-(6-amino-5-methoxypyridin-3-yl)-2-isopropyl-1H-imidazol-5-yl)-N-(2-methoxypyridin-4-yl)pyrimidin-2-amine]
0.3 nM | COc1cc(Nc2nccc(-c3[nH]c(C(C)(C)C)nc3-c3cnc4[nH]cc(Cl)c4c3)n2)ccn1 [Compound 233, 4-(2-tert-butyl-4-(3-chloro-1H-pyrrolo[2,3-b]pyridin-5-yl)-1H-imidazol-5-yl)-N-(2-methoxypyridin-4-yl)pyrimidin-2-amine]
0.4 nM | COC(=O)N[C@@H](C)CNc1nccc(-c2nc(C(C)(C)C)[nH]c2-c2cnc(N)c(C(C)=O)c2)n1 [Compound 235, (S)-methyl-1-(4-(5-(5-acetyl-6-aminopyridin-3-yl)-2-tert-butyl-1H-imidazol-4-yl)pyrimidin-2-ylamino)propan-2-ylcarbamate]
0.1 nM | CCOC(=O)N[C@@H](C)CNc1nccc(-c2[nH]c(C(C)(C)C)nc2-c2cnc(N)c(OC)n2)n1 [Compound 236, (S)-ethyl 1-(4-(4-(5-amino-6-methoxypyrazin-2-yl)-2-tert-butyl-1H-imidazol-5-yl)pyrimidin-2-ylamino)propan-2-ylcarbamate]
0.1 nM | COc1nc(-c2nc(C(C)(C)C)[nH]c2-c2ccnc(NC[C@H](C)NC(=O)OC(C)C)n2)cnc1N [Compound 237, (S)-isopropyl 1-(4-(4-(5-amino-6-methoxypyrazin-2-yl)-2-tert-butyl-1H-imidazol-5-yl)pyrimidin-2-ylamino)propan-2-ylcarbamate]
0.1 nM | COc1nc(-c2nc(C(C)(C)C)[nH]c2-c2ccnc(NC[C@H](C)NC(=O)OCC(C)(C)C)n2)cnc1N [Compound 238, (S)-neopentyl 1-(4-(4-(5-amino-6-methoxypyrazin-2-yl)-2-tert-butyl-1H-imidazol-5-yl)pyrimidin-2-ylamino)propan-2-ylcarbamate]
0.1 nM | COc1nc(-c2nc(C(C)(C)C)[nH]c2-c2ccnc(NC[C@H](C)NC(=O)OCC(C)C)n2)cnc1N [Compound 239, (S)-isobutyl 1-(4-(4-(5-amino-6-methoxypyrazin-2-yl)-2-tert-butyl-1H-imidazol-5-yl)pyrimidin-2-ylamino)propan-2-ylcarbamate]
0.2 nM | COc1nc(-c2nc(C(C)(C)C)[nH]c2-c2ccnc(NC[C@H](C)NC(=O)[C@H](C)OC)n2)cnc1N [Compound 242, (S)-N-((S)-1-(4-(4-(5-amino-6-methoxypyrazin-2-yl)-2-tert-butyl-1H-imidazol-5-yl)pyrimidin-2-ylamino)propan-2-yl)-2-methoxypropanamide]
0.1 nM | COc1cc(-c2nc(C(C)(C)C)oc2-c2ccnc(NCC(C)C)c2)cnc1N [Compound 246, 4-(4-(6-amino-5-methoxypyridin-3-yl)-2-tert-butyloxazol-5-yl)-N-isobutylpyridin-2-amine]
0.1 nM | COCC(=O)N[C@@H](C)CNc1nccc(-c2[nH]c(-c3ccc(C(F)(F)F)cc3F)nc2-c2cnc(N)c(OC)n2)n1 [Compound 247, (S)-N-(1-(4-(4-(5-amino-6-methoxypyrazin-2-yl)-2-(2-fluoro-4-(trifluoromethyl)phenyl)-1H-imidazol-5-yl)pyrimidin-2-ylamino)propan-2-yl)-2-methoxyacetamide]
0.1 nM | COCC(=O)N[C@@H](C)CNc1nccc(-c2[nH]c(C3CC3)nc2-c2cnc(N)c(OC)n2)n1 [Compound 250, (S)-N-(1-(4-(4-(5-amino-6-methoxypyrazin-2-yl)-2-cyclopropyl-1H-imidazol-5-yl)pyrimidin-2-ylamino)propan-2-yl)-2-methoxyacetamide]
0.04 nM | COC(=O)N[C@@H](C)CNc1nccc(-c2[nH]c(C3(C)CC3)nc2-c2cnc(N)c(OC)n2)n1 [Compound 251, (S)-methyl 1-(4-(4-(5-amino-6-methoxypyrazin-2-yl)-2-(1-methylcyclopropyl)-1H-imidazol-5-yl)pyrimidin-2-ylamino)propan-2-ylcarbamate]
0.1 nM | [2H]C([2H])([2H])Oc1nc(-c2nc(C(C)(C)C)[nH]c2-c2ccnc(NC[C@H](C)NC(=O)OC)n2)cnc1N [Compound 261, (S)-methyl 1-(4-(4-(5-amino-6-(D3-methoxy)pyrazin-2-yl)-2-tert-butyl-1H-imidazol-5-yl)pyrimidin-2-ylamino)propan-2-ylcarbamate]

Source: US20100003246A1, “Novel heterocyclic compounds and uses therof” (priority 2008, published 2010)
